From the supplement of paper PMC5412046

Assays:
SB.msgc-1 [1] = experiment: viability at highest tested concentration (MAXR) relative to DMSO; higher = less cytotoxic; conditions: SB.msgc-1 (sporadic gastric cancer)
Summary of the method: (§1)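 Viability values are normalised to DMSO and given either at the highest concentration or as trapezoidal area under the curve. The assay used 500 hereditary or sporadic patient-derived gastric cancer cells in 5 μL medium per 1536 well, dosed by pintool with 23 nL of compound in DMSO at 11 threefold-diluted concentrations. CellTiter-Glo was added 48 h later for 30 min at room temperature, followed by luminescence reading on a ViewLux.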

SB.mhdgc-1 [2] = experiment: as above; conditions: SB.mhdgc-1 (hereditary c.1380delA CDH1 gastric cancer)
Summary of the method: as §1

SB.msgc-1 [3] = experiment: area under the dose-response curve of % viability (trapezoidal, 11 doses) (% viability x log10 concentration); higher = less cytotoxic; conditions: SB.msgc-1 (sporadic gastric cancer)
Summary of the method: as §1

SB.mhdgc-1 [4] = experiment: as above; conditions: SB.mhdgc-1 (hereditary c.1380delA CDH1 gastric cancer)
Summary of the method: as §1

Row | SMILES | viability (SB.msgc-1 [1]) [%] | viability (SB.mhdgc-1 [2]) [%] | area under the dose-response curve (SB.msgc-1 [3]) | area under the dose-response curve (SB.mhdgc-1 [4])
1 | Oc1ccc(/C=C/c2cc(O)cc(O)c2)cc1 [Resveratrol] (top concentration 46.0829 µM) | 101 | 81.7 | 583 | 544
2 | C=CCNc1c(O)cc2c(O)c1C[C@@H](C)C[C@H](OC)[C@H](O)[C@@H](C)/C=C(/C)[C@H](OC(N)=O)[C@@H](OC)/C=C\C=C(\C)C(=O)N2 [Retaspimycin] (top concentration 46.0829 µM) | 35.9 | 7.51 | 312 | 384
3 | CCOC(=O)Nc1ccc(NCc2ccc(F)cc2)cc1N [Retigabine] (top concentration 46.0829 µM) | 73.7 | 82 | 524 | 490
4 | c1nc2c(NC3CCCCC3)nc(Nc3ccc(N4CCOCC4)cc3)nc2[nH]1 [Reversine] (top concentration 46.0829 µM) | 15.7 | 5.27 | 538 | 499
5 | O=C(O)c1cc(O)c2c(c1)C(=O)c1cccc(O)c1C2=O [Rhein] (top concentration 92.1659 µM) | 43.1 | 53.8 | 570 | 588
6 | NC(=O)c1ncn([C@@H]2O[C@H](CO)[C@@H](O)[C@H]2O)n1 [Ribavirin] (top concentration 46.0829 µM) | 99.2 | 130 | 594 | 656
7 | OCC(O)C(O)C(O)CO (centres undefined) [Ribitol] (top concentration 46.0829 µM) | 109 | 120 | 537 | 467
8 | CC1=CC/2=C(C=C1C)N(C[C@@H](O)[C@@H](O)[C@@H](O)CO)C/3=N/C(=O)NC(=O)C3=N2 [Riboflavin] (top concentration 46.0829 µM) | 104 | 121 | 525 | 570
9 | CO[C@H]1C[C@@H]2CC[C@@H](C)[C@@](O)(O2)C(=O)C(=O)N2CCCC[C@H]2C(=O)O[C@H]([C@H](C)C[C@@H]2CC[C@@H](OP(C)(C)=O)[C@H](OC)C2)CC(=O)[C@H](C)/C=C(\C)[C@@H](O)[C@@H](OC)C(=O)[C@H](C)C[C@H](C)/C=C/C=C/C=C/1C [Ridaforolimus] (top concentration 46.0829 µM) | 70.8 | 73.6 | 475 | 383
10 | CO[C@H]1/C=C/O[C@@]2(C)Oc3c(C)c(O)c4c(c3C2=O)C2=NC3(CCN(CC(C)C)CC3)NC2=C(NC(=O)/C(C)=C\C=C\[C@H](C)[C@H](O)[C@@H](C)[C@@H](O)[C@@H](C)[C@H](OC(C)=O)[C@@H]1C)C4=O [Rifabutin] (top concentration 46.0829 µM) | 67.5 | 61.8 | 534 | 494
11 | CO[C@H]1/C=C/O[C@@]2(C)Oc3c(C)c(O)c4c(O)c(c(/C=N/N5CCN(C)CC5)c(O)c4c3C2=O)NC(=O)/C(C)=C\C=C\[C@H](C)[C@H](O)[C@@H](C)[C@@H](O)[C@@H](C)[C@H](OC(C)=O)[C@@H]1C [Rifampicin] (top concentration 11.0599 µM) | 65.9 | 111 | 567 | 598
12 | CO[C@H]1/C=C/O[C@@]2(C)Oc3c(C)c(O)c4c(O)c(c(/C=N\N5CCN(C6CCCC6)CC5)c(O)c4c3C2=O)NC(=O)/C(C)=C\C=C\[C@H](C)[C@H](O)[C@@H](C)[C@@H](O)[C@@H](C)[C@H](OC(C)=O)[C@@H]1C [Rifapentine] (top concentration 46.0829 µM) | 38.1 | 7.61 | 322 | 233
13 | CO[C@H]1/C=C/O[C@@]2(C)Oc3c(C)c(O)c4c(O)c(c5c(nc6cc(C)ccn65)c4c3C2=O)NC(=O)/C(C)=C\C=C\[C@H](C)[C@H](O)[C@@H](C)[C@@H](O)[C@@H](C)[C@H](OC(C)=O)[C@@H]1C [Rifaximin] (top concentration 46.0829 µM) | 79.9 | 79.1 | 516 | 532
14 | C1COC(NC(C2CC2)C2CC2)=N1 [Rilmenidine] (top concentration 46.0829 µM) | 109 | 75.5 | 490 | 460
15 | Nc1nc2ccc(OC(F)(F)F)cc2s1 [Riluzole] (top concentration 46.0829 µM) | 62.1 | 62.8 | 508 | 520
16 | CC(N)C12CC3CC(CC(C3)C1)C2 (centres undefined) [Rimantadine] (top concentration 46.0829 µM) | 112 | 136 | 559 | 569
